Laboratory results reported in patent publication US20210403924A1, “Method for selecting cells based on CRISPR/Cas-mediated integration of a detectable tag to a target protein” (Hoffmann-La Roche Inc., priority 2018, published 2021).

Experiments:
Assay type in all cases: cell-based
human TUBA1B locus [1] = assay: Knock-in Strategy V2: eGFP knock-in at TUBA1B, puromycin and hygromycin B double selection, FACS screen of clones for FITC signal; conditions: for Efficiency (potentially positive clones / clones examined) / Number of potential clones (total number of examined clones in parentheses): HEK293A
Description: In the Knock-in Strategy V2, a Cas9-encoding plasmid comprising a puromycin-resistance cassette was co-transfected with a circular donor plasmid with a hygromycin B-resistance cassette as well as specific, synthetic crRNA and tracrRNA. The selection was carried out as double selection with hygromycin B for the donor plasmid and puromycin for the Cas9-encoding plasmid.
In the Knock-in Strategy V2, the cells were transfected with the identical crRNAs and tracrRNAs, as well as the Cas9-PuroR plasmid as in the Knock-in Strategy V1. Each of the three crRNAs (SEQ ID NO: 07-09) was combined with the linearized or circular donor plasmid with the hygromycin B-resistance cassette. Selection was performed via puromycin for the Cas9 plasmid and hygromycin B for the donor plasmid for a total of 10 days. Four 96-well plates with FITC-positive, viable single cells were subsequently deposited from each transfection. Differences in the FITC signal between the wild-type and the transfected cells were evident in the enlarged view of the histograms. The proportion of FITC-positive cells was between 0.4% and 3.8%. […] The most intense signal was found in the sample of crRNA3 and the circular donor plasmid (FIG. 13).
After a three-week incubation in the incubator, the growth rate of the deposited single cells was determined microscopically. It averaged 34.3%. All grown clones were analyzed by FACS for their FITC signal. An eGFP expression in the cells leads to the detection of an increased FITC signal compared to the wild-type, i.e. non-transfected cells. A total of 118 potentially positive clones were identified from a total of 496 analyzed clones. This corresponded to an overall efficiency of […]. The proportion of potentially positive clones among the samples containing the circular donor plasmid was 33.3%, more than twice as high as that for the linearized donor plasmid at 15.3% (Table 4).
(§1) Using FACS sorting, the transfected and partially already selected cells were sorted. These were harvested, washed with PBS and adjusted to a cell number of 1×10^6 cells/mL in FACS buffer. After the desired cell population had been gated and all settings made on the device for sorting, the selected cells could be […]. The single cell deposit was performed in 96-well format. The plates were stored with 200 μL of medium per well at 37° C. in order to temper the medium and to keep the cell's stress as low as possible. Each knock-in trial involved deposition in between 20 and 24 plates. The cells then needed about 3 weeks in the incubator at 37° C. and 5% CO2 for growth. All plates were analyzed microscopically to determine the growth rate and the clones were then examined for eGFP expression.
(§2) The methodology was used primarily for the screening of the generated clones. For this purpose, the medium was completely removed from the 96-well plates, the cells were detached with 25 μL Accutase and resuspended with 40 μL FACS buffer. 40 μL of cell suspension was transferred to a 96-well conical-bottomed plate and measured directly on the FACS Canto II from BD. The eGFP signals of the clones were always referenced with HEK293A wild-type cells. The evaluation was done with the FlowJo v10.0.7 software. Potentially positive clones with a distinct eGFP signal were expanded and further characterized.

human TUBA1B locus [2] = assay: Knock-in Strategy V1: eGFP knock-in at TUBA1B, puromycin single selection, FACS screen of clones for FITC signal; conditions: HEK293A
Description: In the Knock-in Strategy V1, a Cas9-encoding plasmid comprising a puromycin-resistance cassette was co-transfected with a circular donor plasmid without a selection marker as well as specific synthetic crRNA and tracrRNA. The selection was carried out exclusively with puromycin on the Cas9-encoding plasmid.
In the first knock-in strategy, the cells were transfected with the Cas9-PuroR plasmid, the circular donor plasmid, as well as specific, synthetic crRNA and tracrRNA. The selection was made exclusively on the Cas9 plasmid with puromycin for 10 days. Thereafter, single cells of the cells transfected with crRNA1 (SEQ ID NO: 07) or crRNA2 (SEQ ID NO: 08), respectively, were deposited in ten 96-well plates. […] The increased FITC signal can be attributed to the expression of eGFP, which is only possible if the eGFP sequence from the donor plasmid has been introduced in-frame into a translated region in the genome, since the start codon is missing.
The growth rate of the deposited single cells was determined microscopically after 3 weeks, and totaled 63%. Subsequently, the cells by FACS were analyzed for their FITC signal (results in Table 1).
as §1, §2

human TUBA1B locus [3] = assay: Knock-in Strategy V3: eGFP knock-in at TUBA1B, CD4 pool sorting and hygromycin B selection, FACS screen of clones for FITC signal; conditions: HEK293A
Description: In the Knock-in Strategy V3, the Cas9 nuclease and the sgRNA were combined on a single plasmid. This additionally contained a CD4 marker for selection. The donor plasmid corresponded to that of the strategy V2. Thus, the double selection was carried out via hygromycin B for the donor plasmid, as well as for CD4 for the nuclease/gRNA plasmid.
In the Knock-in Strategy V3, the cells were transfected with the circular or linear donor plasmid and a pCas-Guide EF1α-CD4 plasmid. This plasmid, referred to as “all-in-one”, encodes the Cas9 nuclease, a gRNA and CD4. The selection was made in this strategy via hygromycin B for the donor plasmid, and with CD4 for the Cas9 nuclease and the gRNA. Three different pCas-Guide-EF1α-CD4 plasmids were used, each coding for one of the three gRNAs. […] About 48 hours after transfection, the cells were stained with an APC-conjugated anti-CD4 antibody. HEK293A wild-type cells natively express no CD4, so these cells defined the APC negative gate. Only cells that had taken up the pCas-Guide-EF1α-CD4 plasmid expressed CD4 on the cell surface, which was detectable by FACS via the elevated APC signal after staining with the antibody. […] The transfected cells are between 63% and 86% in the APC positive gate. Comparing the samples with linear and circular donor plasmid from each gRNA, it was possible to see that proportionally more APC and, thus, CD4 positive cells were detected in the samples with the circular donor plasmid. From each transfection approximately 5×10^5 CD4 positive cells were deposited as a cell pool using FACS sorting (FIG. 16).
The cells were cultured after pool sorting for 24 h in 6-well plates. Next, selection with hygromycin B was performed for the donor plasmid for 10 days. Subsequently, single cells from each transfection were deposited in four 96-well plates. Differences in the FITC signal between the wild-type and the transfected samples were evident in the enlarged view of the histograms. […] Gating on FITC-positive cells was therefore almost impossible. To the extent possible, viable single cells were deposited from the FITC-positive gate (FIG. 17).
Three weeks after single cell deposition, the first screening of the clones for the FITC signal followed and, thus, the presence of eGFP in the FACS. Previously, an average growth rate of 43% had been determined microscopically. A total of 952 clones were screened, of which 33 were identified as potentially positive clones. This corresponded to an efficiency of 3.4%. No clones could be identified in the three samples 1L, 3L and 3Z. Again, it was possible to see that the circular donor plasmid samples yielded more potentially positive clones than did samples with the linearized donor plasmid (Table 7).
In the knock-in V3, the pCas9-Guide-EF1α-CD4 plasmid contains a CD4 cassette as a selection marker. To select the CD4-positive cells, the cells were harvested 48 hours after transfection and washed twice with PBS. Next, the cells were resuspended in 250 μL FACS buffer and 5 μL α-CD4-Alexa 647 antibody added. This corresponded to a final antibody concentration of 1.5 μg/mL. After one hour of incubation on ice in the dark, the cells were washed three times with FACS buffer and then measured. For pool sorting, approximately 1.5×10^5 CD4-positive cells per sample were sorted into a 15 mL Falcon in which 5 mL of complete medium had already been placed. Subsequently, the cells were centrifuged for 5 min. at 300 g, resuspended in 3 mL fresh complete medium and seeded into a 6-well plate. After 24 hours the cells were again adherent and could be selected with hygromycin B on the donor plasmid. Once the selected cells had matured, the single-cell deposition in the 96-well format was again carried out.
The methodology was used primarily for the screening of the generated clones. For this purpose, the medium was completely removed from the 96-well plates, the cells were detached with 25 μL Accutase and resuspended with 40 μL FACS buffer. […]

[4] = Plates from gate P3, circular donor plasmid
[5] = Plates from gate P4 (FITC-positive), circular donor plasmid

| Substance | Efficiency (potentially positive clones / clones examined) (human TUBA1B locus [1]; Circular donor plasmid) | Number of potential clones (total number of examined clones in parentheses) (human TUBA1B locus [1]; Circular donor plasmid) | Efficiency (potentially positive clones / clones examined) (human TUBA1B locus [1]; Linear donor plasmid) | Number of potential clones (total number of examined clones in parentheses) (human TUBA1B locus [1]; Linear donor plasmid) | Efficiency (potentially positive clones / clones examined) (human TUBA1B locus [2]; [4]) | Number of potentially positive clones (total number of examined clones in parentheses) (human TUBA1B locus [2]; [4]) | Efficiency (potentially positive clones / clones examined) (human TUBA1B locus [2]; [5]) | Number of potentially positive clones (total number of examined clones in parentheses) (human TUBA1B locus [2]; [5]) | Efficiency (potential clones / clones examined) (human TUBA1B locus [3]; Circular donor plasmid) | Number of potential clones (total number of examined clones in parentheses) (human TUBA1B locus [3]; Circular donor plasmid) | Efficiency (potential clones / clones examined) (human TUBA1B locus [3]; Linear donor plasmid) | Number of potential clones (total number of examined clones in parentheses) (human TUBA1B locus [3]; Linear donor plasmid) | cells of the clones in the FITC-positive range (human TUBA1B locus [1]; clones with circular donor plasmid, after long-term cultivation, FACS) |
| --- | --- | --- | --- | --- | --- | --- | --- | --- | --- | --- | --- | --- | --- |
| crRNA2: TUBA1B-specific synthetic crRNA (Dharmacon), SEQ ID NO: 08, GGCCAGGCTGGTGTCCAGAT (synthetic crRNA bought from a supplier, chemistry not given here) | 1% | 1 (98) | 0% | 0 (81) | 0.25% | 1 (399) | 14.7% | 9 (64) | – | – | – | – | – |
| gRNA3: TUBA1B-specific gRNA encoded on the pCas-Guide-EF1α-CD4 all-in-one plasmid, oligos SEQ ID NO: 05 and 06 (DNA 1 GATCGGAGCTCTACTGCCTGGAACAG; DNA 2 AAAACTGTTCCAGGCAGTAGAGCTCC; the letters are possibly those of the target site) | – | – | – | – | – | – | – | – | 0% | 0 (105) | 0% | 0 (212) | – |
| gRNA1: TUBA1B-specific gRNA encoded on the pCas-Guide-EF1α-CD4 all-in-one plasmid, oligos SEQ ID NO: 01 and 02 (DNA 1 GATCGGAGTGCATCTCCATCCACGTG; DNA 2 AAAACACGTGGATGGAGATGCACTCC; the letters are possibly those of the target site) | – | – | – | – | – | – | – | – | 19.4% | 12 (62) | 0% | 0 (195) | – |
| gRNA2: TUBA1B-specific gRNA encoded on the pCas-Guide-EF1α-CD4 all-in-one plasmid, oligos SEQ ID NO: 03 and 04 (DNA 1 GATCGGGCCAGGCTGGTGTCCAGATG; DNA 2 AAAACATCTGGACACCAGCCTGGCCC; the letters are possibly those of the target site) | – | – | – | – | – | – | – | – | 6.5% | 14 (214) | 3.6% | 7 (195) | – |
| crRNA1: TUBA1B-specific synthetic crRNA (Dharmacon), SEQ ID NO: 07, GAGTGCATCTCCATCCACGT (synthetic crRNA bought from a supplier, chemistry not given here) | 53.3% | 40 (75) | 7.2% | 7 (97) | 0.44% | 2 (452) | 16.1% | 11 (68) | – | – | – | – | – |
| crRNA3: TUBA1B-specific synthetic crRNA (Dharmacon), SEQ ID NO: 09, GAGCTCTACTGCCTGGAACA (synthetic crRNA bought from a supplier, chemistry not given here) | 60.7% | 37 (61) | 39.3% | 33 (84) | – | – | – | – | – | – | – | – | over 87% |
